Results published in patent US20240158418A1 (C4 Therapeutics, Inc., priority 2021, published 2024).
Where two headings read alike, the source gives them in different places.

How the values were obtained:
[1] = system: BaF3 cells expressing EGFR L858R-T790M-L792H; test: Ba/F3 EGFR cell viability (CellTiter-Glo), L858R-T790M-L792H; assay type: cell-based; details: Mus musculus, read-out: CTGlo (GI50)
Excerpt: (§1) RPMI 1640 media, cell culture flasks, and 384-well microplates were purchased from VWR (Radnor, PA, USA). Fetal bovine serum (FBS) was purchased from Life Technologies (Carlsbad, CA, USA) and CellTiter-Glo® was purchased from Promega (Madison, WI, USA). The Ba/F3 parental cell line was purchased from CrownBio (Santa Clara, CA). BaF3 cell lines ectopically expressing the EGFR mutations L858R, L858R-T790M, L858R-C797S, and L858R-T790M-C797S were purchased from CrownBio and EGFR mutations L858R-L718Q, L858R-T790M-L718Q, L858R-L792H, and L858R-T790M-L792H, were purchased from Signosis (Santa Clara, CA).
(§2) Cell viability was assessed based on the quantification of ATP using the CellTiter-Glo® assay (Promega, Madison, WI, USA). To determine the effect of compounds on cell viability, all Ba/F3 cell lines were plated at a cell density of 2000 cells/well in 384-well plates using RPMI 1640+10% FBS and treated with compounds of interest using a 10-point half-log dilution series in duplicate for 72 hours, with the highest dose set at […]. CellTiter-Glo® reagent was then added and luminescence signals were measured using an EnVision™ Multimode plate reader (Perkin Elmer, Santa Clara, CA). For data normalization, cells untreated with the test compounds at Time=72 hours were set to 100% (equivalent to maximal cell growth after 72 hours); cells untreated with the test compounds at Time=0 hours were set to 0% (equivalent to cytostasis); and media-only wells were set to −100% (equivalent to complete cytotoxicity). % Viability was determined by normalizing the signal with positive and DMSO treated negative controls on the same microtiter plate. The half-maximal inhibition of cell growth (GI50) is computed from where the fitted curve crosses 50% while the half-maximal lethal dose (LD50) is computed from where the fitted curve crosses −50%.

[2] = target: T1, pY1068 EGFR L858R-T790M (Homo sapiens, UniProt P00533, L858R/T790M); test: Phospho-EGFR (pY1068) inhibition HTRF, NCI-H1975; assay type: cell-based; details: 6 hours, read-out: pEGFR IC50
T1 construct: NCI-H1975 (harboring EGFR heterozygous L858R-T790M mutations); host or cells: NCI-H1975
T1 sequence (P00533 25-1210 T790M/L858R): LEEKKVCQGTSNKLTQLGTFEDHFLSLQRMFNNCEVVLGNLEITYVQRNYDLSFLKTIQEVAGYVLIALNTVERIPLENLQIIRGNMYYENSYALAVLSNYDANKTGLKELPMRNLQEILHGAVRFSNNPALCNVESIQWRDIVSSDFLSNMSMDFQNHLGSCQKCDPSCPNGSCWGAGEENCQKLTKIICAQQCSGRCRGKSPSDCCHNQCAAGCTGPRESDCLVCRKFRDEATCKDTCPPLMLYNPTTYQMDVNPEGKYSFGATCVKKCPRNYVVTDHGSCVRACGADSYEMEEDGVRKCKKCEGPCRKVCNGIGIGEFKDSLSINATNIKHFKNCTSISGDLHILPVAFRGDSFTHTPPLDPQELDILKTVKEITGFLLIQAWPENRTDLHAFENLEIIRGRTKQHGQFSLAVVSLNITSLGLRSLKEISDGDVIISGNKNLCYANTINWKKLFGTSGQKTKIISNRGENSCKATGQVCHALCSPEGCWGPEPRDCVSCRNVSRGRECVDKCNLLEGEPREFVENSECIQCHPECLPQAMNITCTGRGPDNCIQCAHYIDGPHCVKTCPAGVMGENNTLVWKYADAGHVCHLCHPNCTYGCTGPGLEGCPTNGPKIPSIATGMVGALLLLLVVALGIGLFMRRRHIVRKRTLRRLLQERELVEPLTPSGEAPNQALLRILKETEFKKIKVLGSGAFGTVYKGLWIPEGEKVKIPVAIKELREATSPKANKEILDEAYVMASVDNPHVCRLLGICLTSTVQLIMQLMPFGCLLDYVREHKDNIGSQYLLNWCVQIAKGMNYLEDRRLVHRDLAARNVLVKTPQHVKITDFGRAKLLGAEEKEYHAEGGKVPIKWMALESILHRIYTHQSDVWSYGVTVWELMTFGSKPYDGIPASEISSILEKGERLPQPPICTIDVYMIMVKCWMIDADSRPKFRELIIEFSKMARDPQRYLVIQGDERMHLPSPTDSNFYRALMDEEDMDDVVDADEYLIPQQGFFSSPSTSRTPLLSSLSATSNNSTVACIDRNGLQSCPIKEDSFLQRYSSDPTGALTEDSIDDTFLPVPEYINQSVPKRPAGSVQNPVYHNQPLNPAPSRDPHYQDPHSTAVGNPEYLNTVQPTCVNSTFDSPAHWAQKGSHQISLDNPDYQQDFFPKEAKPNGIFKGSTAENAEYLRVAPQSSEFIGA
Excerpt: NCI-H1975 (harboring EGFR heterozygous L858R-T790M mutations) and NCI-H3255 (harboring EGFR heterozygous L858R mutation) were purchased from ATCC and NCI, respectively. NCI-H1975+CS (harboring EGFR heterozygous L858R-T790M-C797S mutations) was generated using CRISPR technology to introduce the additional C797S mutation by Horizon Discovery. A431 (harboring EGFR wildtype) was purchased from ATCC. RPMI 1640 no-phenol red medium and fetal bovine serum (FBS) were purchased from Gibco (Grand Island, NY, USA). Cell culture flasks and 384-well microplates were acquired from VWR (Radnor, PA, USA). Phosphorylated (pY1068) EGFR and Total EGFR (using L858R-specific detection antibody and pan-EGFR antibody for EGFR mutant cell lines and EGFR wild-type cell lines, respectively) HTRF assay kits were purchased from Cisbio (Bedford, MA, USA).
Degradation of EGFR protein containing L858R mutation or wild-type was determined based on quantification of FRET signal using a Total EGFR (L858R-specific or pan-EGFR detecting) HTRF assay kit. Phospho-EGFR (pEGFR) inhibition was determined based on quantification of FRET signal using a pY1068 EGFR HTRF assay kit. In separate assay plates, test compounds were added to the 384-well plate from a top concentration of 10 μM with 11 points, half log titration in duplicates. For each assay, 12.5 uL of cells suspended in assay media (RPMI 1640 no-phenol red medium+10% FBS) at cell densities indicated for each cell line in Table 8 below were dispensed using a multi-channel pipette to 384-well low volume white HTRF microplates containing a duplicate concentration range of test compounds and DMSO controls. The plates were kept at 37° C. with 5% CO2 for 6 hours and then incubated with either phospho EGFR or Total EGFR HTRF detection antibodies according to the cell line and EGFR mutant being assayed. Cells treated in the absence of the test compound were the negative control. Positive control was set by wells containing all reagents but no cells. FRET signal was acquired on EnVision™ Multilabel Reader (PerkinElmer, Santa Clara, CA, USA). Compound concentration that achieves 50% degradation and inhibition was reported as DC50 and IC50, respectively.

[3] = system: BaF3 cells expressing EGFR L858R-L792H; test: Ba/F3 EGFR cell viability (CellTiter-Glo), L858R-L792H; assay type: cell-based; details: Mus musculus, read-out: CTGlo (GI50)
Excerpt: as §1, §2

[4] = target: T2, EGFR L858R-T790M (Homo sapiens, UniProt P00533, L858R/T790M); test: EGFR degradation, Total EGFR (L858R-specific) HTRF, NCI-H1975; assay type: cell-based; details: 6 hours
T2 construct: NCI-H1975 (harboring EGFR heterozygous L858R-T790M mutations); host or cells: NCI-H1975
T2 sequence (P00533 25-1210 T790M/L858R): as above
Outline: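 FRET signal from HTRF kits measured phospho-EGFR at pY1068 or total EGFR after 6 h treatment at 37 °C. Compounds ran as 11-point half-log dilutions from 10 μM in duplicate, in cells in phenol red-free RPMI with 10% FBS. Concentrations giving 50% inhibition or degradation were reported as IC50 or DC50.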

[5] = system: BaF3 cells expressing EGFR L858R-T790M-L718Q; test: Ba/F3 EGFR cell viability (CellTiter-Glo), L858R-T790M-L718Q; assay type: cell-based; details: Mus musculus, read-out: CTGlo (GI50)
Excerpt: as §1, §2

[6] = system: BaF3 cells expressing EGFR L858R-T790M-C797S; test: Ba/F3 EGFR cell viability (CellTiter-Glo), L858R-T790M-C797S; assay type: cell-based; details: Mus musculus, read-out: CTGlo (GI50)
Excerpt: as §1, §2

[7] = system: BaF3 cells expressing EGFR L858R-L718Q; test: Ba/F3 EGFR cell viability (CellTiter-Glo), L858R-L718Q; assay type: cell-based; details: Mus musculus, read-out: CTGlo (GI50)
Excerpt: as §1, §2

[8] = system: engineered triple mutant EGFR (L858R-T790M-C797S) BaF3 tumors; test: BaF3 triple mutant EGFR allograft efficacy; assay type: in vivo, female BALB/c nude mice; details: Compound 1 or 2 at 20, 50, 100 mg/kg/day PO BID; osimertinib 25 mg/kg/day PO QD; 14 days
Description: Each Compound was administered BID (twice a day) orally (PO).
Tumor volume was measured twice weekly in two dimensions using calipers, and volume (mm^3) was calculated using the formula: V=0.5 a×b^2 where a and b are the long and short diameters of the tumor in mm, respectively. […] Treatment began on Day 0 with established subcutaneous BaF3 tumors with a mean tumor volume (MTV) of 108 mm^3.
Body weight and MTV were measured on a 2× weekly schedule. Statistical analysis was performed using a one-way ANOVA followed by Dunnett's multiple comparison test. Data are expressed as MTV±SEM.

[9] = H1975 (L858R-T790M), read-out: tEGFR DC50
[10] = Table 9A, NCI-H1975 cells, Total EGFR HTRF, read-out: H1975 EGFR DC50

Structure (SMILES)	GI50 [1] [nM]	IC50 [2] [nM]	GI50 [3] [nM]	DC50 [4, 9] [nM]	DC50 [4, 10] [nM]	GI50 [5] [nM]	GI50 [6] [nM]	GI50 [7] [nM]	efficacy on BaF3 tumor volume [8]
O=C1CCN(c2ccc(N3CCC(O)(CC(=O)N4CC5(C4)CN(c4ccc(-c6cc(F)c7c(c6)C(=O)N(C(C(=O)Nc6nccs6)c6ncn8c6CCC8)C7)cc4)C5)CC3)c(Cl)c2)C(=O)N1 (centres unmarked) [Compound 8, 2-[6-[4-[2-[2-[1-[2-chloro-4-(2,4-dioxohexahydropyrimidin-1-yl)phenyl]-4-hydroxy-4-piperidyl]acetyl]-2,6-diazaspiro[3.3]heptan-6-yl]phenyl]-4-fluoro-1-oxo-isoindolin-2-yl]-2-(6,7-dihydro-5H-pyrrolo[1,2-c]imidazol-1-yl)-N-thiazol-2-yl-acetamide]	45	22	213	23	< 50	403	13	2020	–
O=C1CC[C@H](Nc2ccc(N3CCC(O)(CC(=O)N4CCC5(CC4)CN(c4ccc(-c6cc(F)c7c(c6)C(=O)N(C(C(=O)Nc6nccs6)c6ncn8c6CCC8)C7)cc4)C5)CC3)c(F)c2)C(=O)N1 (stereo partly drawn) [Compound 9, 2-(6,7-dihydro-5H-pyrrolo[1,2-c]imidazol-1-yl)-2-[6-[4-[7-[2-[1-[4-[[(3S)-2,6-dioxo-3-piperidyl]amino]-2-fluoro-phenyl]-4-hydroxy-4-piperidyl]acetyl]-2,7-diazaspiro[3.5]nonan-2-yl]phenyl]-4-fluoro-1-oxo-isoindolin-2-yl]-N-thiazol-2-yl-acetamide]	33	30	10	24	< 50	82	16	23	–
C=CC(=O)Nc1cc(Nc2nccc(-c3cn(C)c4ccccc34)n2)c(OC)cc1N(C)CCN(C)C [osimertinib, reference compound]	–	–	–	–	–	–	–	–	minimal efficacy
